{"source": "patent US20250017853A1", "about": "“NANOSUSPENSION CONTAINING PROGERININ, AND PREPARATION METHOD THEREFOR” (PRG S&Tech Inc., priority 2021, published 2025)", "key": {"[1]": {"experiment": "Stability of spray-dried solid dispersions under high temperature and high humidity for 2 weeks", "format": "physicochemical", "settings": "for Appearance / HPLC results Purity / XRPD: open"}, "[2]": {"experiment": "Excipient compatibility, binary mixtures 1:10, 40° C./75% RH over 2 weeks", "format": "physicochemical", "experimental": "To assess compatibility with excipients, progerinin was mixed with HPMC E3, TPGS, and potassium sorbate in a ratio of 1:10, and the effectiveness of the drug (API) components was measured under 40° C./75% RH condition over 2 weeks and shown in Table 9 and Table 10."}, "[3]": {"experiment": "BCS classification, permeability and solubility of progerinin", "format": "physicochemical", "source_text": "In particular, the above-mentioned progerinin is poorly soluble to the extent that its solubility in water is close to zero, and the solubility is very low even in existing ingestible solvents, such that it is necessary to develop a formulation that enables long-term intake and body absorption through the introduction of new technology."}, "[4]": {"test_system": "progeria-induced animal model", "settings": "background art; cited from earlier work"}, "[5]": {"settings": "BCS criteria; cited from earlier work"}}, "data": [{"molecule": "CC1(C)Oc2cc3oc(=O)ccc3cc2C[C@@H]1OC/C=C/c1ccccc1", "note": "[progerinin, (7S)-(+)-8,8-dimethyl-7-(3-phenylallyloxy)-7,8-dihydro-6H-pyrano [3,2-g]chromen-2-one]", "values": [{"measurement": "Appearance", "setting": "[1]; 25° C./60% RH", "result": "White"}, {"measurement": "HPLC results Purity", "setting": "[1]; 25° C./60% RH, after 1 week", "result": 99.85, "unit": "%"}, {"measurement": "XRPD", "setting": "[1]; 25° C./60% RH, after 1 week", "result": "Unchanged"}, {"measurement": "HPLC results Purity", "setting": "[1]; 25° C./60% RH, after 2 weeks", "result": 99.85, "unit": "%"}, {"measurement": "XRPD", "setting": "[1]; 25° C./60% RH, after 2 weeks", "result": "Unchanged"}, {"measurement": "Appearance", "setting": "[1]; 40° C./75% RH", "result": "White"}, {"measurement": "HPLC results Purity", "setting": "[1]; 40° C./75% RH, after 1 week", "result": 99.85, "unit": "%"}, {"measurement": "XRPD", "setting": "[1]; 40° C./75% RH, after 1 week", "result": "Unchanged"}, {"measurement": "HPLC results Purity", "setting": "[1]; 40° C./75% RH, after 2 weeks", "result": 99.85, "unit": "%"}, {"measurement": "XRPD", "setting": "[1]; 40° C./75% RH, after 2 weeks", "result": "Unchanged"}, {"measurement": "Initial purity", "setting": "[1]; Initial", "result": 99.85, "unit": "%"}, {"measurement": "API(% Area)", "setting": "[2]; 40° C./75% RH, 1 week", "result": 99.94, "unit": "% Area"}, {"measurement": "RRT = 1.02", "setting": "[2]; 40° C./75% RH, 1 week", "result": 0.06}, {"measurement": "API(% Area)", "setting": "[2]; 40° C./75% RH, 2 weeks", "result": 99.95, "unit": "% Area"}, {"measurement": "RRT = 1.02", "setting": "[2]; 40° C./75% RH, 2 weeks", "result": 0.05}, {"measurement": "API(% Area)", "setting": "[2]; Initial", "result": 99.94, "unit": "% Area"}, {"measurement": "RRT = 1.02", "setting": "[2]; Initial", "result": 0.06}, {"measurement": "compatibility with excipients HPMC E3, TPGS and potassium sorbate", "setting": "[2]; text summary of Tables 9 and 10", "result": "no effect on the drug"}, {"measurement": "solubility in water", "setting": "[3]", "result": "close to zero"}, {"measurement": "survival period of progeria-induced animal model", "setting": "[4]", "result": "prolonging a survival period"}, {"measurement": "solubility in aqueous media", "setting": "[5]", "result": "low solubility in aqueous media"}]}]}
